Measured values from patent US20220162191A1, “SMALL MOLECULE MODULATORS OF IL-17” (LEO PHARMA A/S, priority 2019, published 2022).

molecular target: T1, human IL-17AA (Homo sapiens, UniProt Q16552); assay: IL-8 release assay in human epithelial keratinocytes adult (HEKa); type: cell-based; settings: 3 ng/ml human IL-17AA + 10 ng/ml human TNFalpha, 68-72 h, IL-8 by HTRF, read-out: Rel EC50 L-8 release assay
T1 construct: host or cells: HEK (human embryonic kidney) cells
T1 sequence (Q16552 24-155) 1: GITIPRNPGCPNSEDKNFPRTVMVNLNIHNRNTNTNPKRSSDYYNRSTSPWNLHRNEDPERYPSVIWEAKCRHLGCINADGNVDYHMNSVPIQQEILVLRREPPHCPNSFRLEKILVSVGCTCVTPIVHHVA
T1 sequence (Q16552 24-155) 2: T1 sequence (Q16552 24-155) 1
Experimental: Example: IL-8 release assay in human epithelial keratinocytes adult (HEKa) Keratinocytes were seeded at 3500 cells/well in 384-well ViewPlates (Perkin Elmer) in Epilife medium (Thermo Fisher) containing human keratinocyte growth supplement (HKGS) without hydrocortisone and incubated in a humid incubator at 37° C., 5% CO2, overnight. The following day growth medium was removed and 25 μl fresh Epilife 10 medium added. 75 nl test compound in 100% DMSO was added into each well reserved
for test compounds, by the use of acoustic pipetting. The remaining wells received an equal volume of DMSO only, as vehicle control, or terfenadine in DMSO, as a positive control for any cytotoxic compounds. Subsequently, another 25 μl Epilife medium was added to each well. Finally, wells containing test compounds and wells prepared to yield 15 maximum stimulation received 25 μl of 9 ng/ml recombinant, human embryonic kidney cell (HEK)-derived human IL-17AA+30 ng/ml human TNF-alpha, in Epilife medium. Wells prepared to define 100% inhibition of IL-17 effects received 25 μl of 30 ng/ml human TNF-alpha alone, in Epilife medium. Final concentrations were 3 ng/ml HEKhuman IL-17AA+10 ng/ml human TNFalpha (maximum stimulation) and 10 ng/ml 20 human TNFalpha alone (100% inhibition, Emax), respectively. Cells were incubated for 68-72 h in the incubator. IL-8 released from the cells was measured by the use of a commercial homogenous time-resolved fluorescence (HTRF) assay (CisBio). 2 μl cell culture supernatant was transferred to a 384-well Proxiplate. 5 μl HTRF reagent was added and the plates incubated sealed in the dark for 3-22 h at room temperature. Time resolved fluorescence was read at 665 vs 620 nm, with excitation at 320 nm, and IL-8 levels calculated as percent of controls. Reduction of the amount of secreted IL-8 indicates decreased IL-17 signaling. Concentration response curves were fitted by the use of a four-parameter logistic equation. Relative IC50 and Emax were reported from 5 curves showing acceptable fit (r2>0.9). Cytotoxicity was measured in the cell-containing
Compounds of the present invention were tested in the IL-8 release assay in human epithelial keratinocytes.

EC50, 100 to 1000 nM:
Cc1n[nH]c(C)c1-c1ccc(NC(=O)[C@@H](NC(=O)C2(F)CC2)[C@@H]2CCc3ccc(-c4cnn(C(C)(C)CN)c4)cc32)cc1 [Example 24, N-[(1S)-1-[(1R)-6-[1-(2-amino-1,1-dimethyl-ethyl)pyrazol-4-yl]indan-1-yl]-2-[4-(3,5-dimethyl-1H-pyrazol-4-yl)anilino]-2-oxo-ethyl]-1-fluoro-cyclopropanecarboxamide]
CC(C)n1cc(-c2ccc3c(c2)C([C@H](NC(=O)c2ccnn2C)C(=O)Nc2ccc(-c4cncn4C)cc2)CC3)ccc1=O (stereo partly drawn) [Example 25, N-[(1S)-1-[6-(1-isopropyl-6-oxo-3-pyridyl)indan-1-yl]-2-[4-(3-methylimidazol-4-yl)anilino]-2-oxo-ethyl]-2-methyl-pyrazole-3-carboxamide]
Cc1ncn(C)c1-c1ccc(NC(=O)[C@@H](NC(=O)OC2CC2)[C@@H]2CCCc3ccc(-c4ccnc(N5CCN(C)CC5)c4)cc32)cc1 [Example 32, cyclopropyl N-[(1S)-2-[4-(3,5-dimethylimidazol-4-yl)anilino]-1-[(1R)-7-[2-(4-methylpiperazin-1-yl)-4-pyridyl]tetralin-1-yl]-2-oxo-ethyl]carbamate]
Cc1ncn(C)c1-c1ccc(NC(=O)[C@@H](NC(=O)c2ccnn2C)[C@@H]2CCCc3ccc(-c4ccc5c(c4)CNC5)cc32)cc1 [Example 42, N-[(1S)-2-[4-(3,5-dimethylimidazol-4-yl)anilino]-1-[(1R)-7-isoindolin-5-yltetralin-1-yl]-2-oxo-ethyl]-2-methyl-pyrazole-3-carboxamide]
Cc1ncn(C)c1-c1ccc(NC(=O)[C@@H](NC(=O)C2(F)CC2)[C@@H]2CCCc3ccc(-c4ccc5c(c4)CNC5)cc32)cc1 [Example 43, N-[(1S)-2-[4-(3,5-dimethylimidazol-4-yl)anilino]-1-[(1R)-7-isoindolin-5-yltetralin-1-yl]-2-oxo-ethyl]-1-fluoro-cyclopropanecarboxamide]

EC50, < 100 nM:
Cc1n[nH]c(C)c1-c1ccc(NC(=O)[C@@H](NC(=O)C2(F)CC2)[C@@H]2CCc3ccc(-c4ccnc(N5C[C@@H]6C[C@H]5CN6)c4)cc32)cc1 [Example 23, N-[(1S)-1-[(1R)-6-[2-[(1S,4S)-2,5-diazabicyclo[2.2.1]heptan-2-yl]-4-pyridyl]indan-1-yl]-2-[4-(3,5-dimethyl-1H-pyrazol-4-yl)anilino]-2-oxo-ethyl]-1-fluoro-cyclopropanecarboxamide]
Cc1n[nH]c(C)c1-c1ccc(NC(=O)[C@@H](NC(=O)c2ccnn2C)[C@@H]2CCCc3ccc(-c4cnn(C5CC5)c4)cc32)cc1 [Example 26, N-[(1S)-1-[(1R)-7-(1-cyclopropylpyrazol-4-yl)tetralin-1-yl]-2-[4-(3,5-dimethyl-1H-pyrazol-4-yl)anilino]-2-oxo-ethyl]-2-methyl-pyrazole-3-carboxamide]
Cc1n[nH]c(C)c1-c1ccc(NC(=O)[C@@H](NC(=O)C2(F)CC2)[C@@H]2CCCc3ccc(-c4ccc(=O)n(C(C)C)c4)cc32)cc1 [Example 27, N-[(1S)-2-[4-(3,5-dimethyl-1H-pyrazol-4-yl)anilino]-1-[(1R)-7-(1-isopropyl-6-oxo-3-pyridyl)tetralin-1-yl]-2-oxo-ethyl]-1-fluoro-cyclopropanecarboxamide]
Cc1n[nH]c(C)c1-c1ccc(NC(=O)[C@@H](NC(=O)C2(F)CC2)[C@@H]2CCCc3ccc(-c4ccnc(N5C[C@H]6C[C@@H]5CO6)c4)cc32)cc1 [Example 28, N-[(1S)-2-[4-(3,5-dimethyl-1H-pyrazol-4-yl)anilino]-1-[(1R)-7-[2-[(1R,4R)-2-oxa-5-azabicyclo[2.2.1]heptan-5-yl]-4-pyridyl]tetralin-1-yl]-2-oxo-ethyl]-1-fluoro-cyclopropanecarboxamide]
Cc1n[nH]c(C)c1-c1ccc(NC(=O)[C@@H](NC(=O)C2(F)CC2)[C@@H]2CCCc3ccc(-c4ccnc(N5C[C@@H]6C[C@H]5CO6)c4)cc32)cc1 [Example 29, N-[(1S)-2-[4-(3,5-dimethyl-1H-pyrazol-4-yl)anilino]-1-[(1R)-7-[2-[(1S,4S)-2-oxa-5-azabicyclo[2.2.1]heptan-5-yl]-4-pyridyl]tetralin-1-yl]-2-oxo-ethyl]-1-fluoro-cyclopropanecarboxamide]
CC(C)n1cc(-c2ccc3c(c2)[C@H]([C@H](NC(=O)c2ccnn2C)C(=O)Nc2ccc(-c4cncn4C)cc2)CCC3)ccc1=O [Example 30, N-[(1S)-1-[(1R)-7-(1-isopropyl-6-oxo-3-pyridyl)tetralin-1-yl]-2-[4-(3-methylimidazol-4-yl)anilino]-2-oxo-ethyl]-2-methyl-pyrazole-3-carboxamide]
CC(C)n1cc(-c2ccc3c(c2)[C@H]([C@H](NC(=O)OC2CC2)C(=O)Nc2ccc(-c4cncn4C)c(O)c2)CCC3)ccc1=O [Example 31, cyclopropyl N-[(1S)-2-[3-hydroxy-4-(3-methylimidazol-4-yl)anilino]-1-[(1R)-7-(1-isopropyl-6-oxo-3-pyridyl)tetralin-1-yl]-2-oxo-ethyl]carbamate]
Cc1n[nH]c(C)c1-c1ccc(NC(=O)[C@@H](NC(=O)c2ccnn2C)[C@@H]2CCCc3ccc(-c4ccc(=O)n(C(C)C)c4)cc32)cc1O [Example 33, N-[(1S)-2-[4-(3,5-dimethyl-1H-pyrazol-4-yl)-3-hydroxy-anilino]-1-[(1R)-7-(1-isopropyl-6-oxo-3-pyridyl)tetralin-1-yl]-2-oxo-ethyl]-2-methyl-pyrazole-3-carboxamide]
Cc1n[nH]c(C)c1-c1ccc(NC(=O)[C@@H](NC(=O)c2ccnn2C)[C@@H]2CCCc3ccc(-c4cnn(C(C)(C)C)c4)cc32)cc1 [Example 34, N-[(1S)-1-[(1R)-7-(1-tert-butylpyrazol-4-yl)tetralin-1-yl]-2-[4-(3,5-dimethyl-1H-pyrazol-4-yl)anilino]-2-oxo-ethyl]-2-methyl-pyrazole-3-carboxamide]
Cc1n[nH]c(C)c1-c1ccc(NC(=O)[C@@H](NC(=O)c2ccnn2C)[C@@H]2CCCc3ccc(-c4ccc5c(c4)CNC5)cc32)cc1 [Example 35, N-[(1S)-2-[4-(3,5-dimethyl-1H-pyrazol-4-yl)anilino]-1-[(1R)-7-isoindolin-5-yltetralin-1-yl]-2-oxo-ethyl]-2-methyl-pyrazole-3-carboxamide]
Cc1n[nH]c(C)c1-c1ccc(NC(=O)[C@@H](NC(=O)c2ccnn2C)[C@@H]2CCCc3ccc(-c4ccc5c(c4)CCN(C)C5)cc32)cc1 [Example 36, N-[(1S)-2-[4-(3,5-dimethyl-1H-pyrazol-4-yl)anilino]-1-[(1R)-7-(2-methyl-3,4-dihydro-1H-isoquinolin-6-yl)tetralin-1-yl]-2-oxo-ethyl]-2-methyl-pyrazole-3-carboxamide]
Cc1n[nH]c(C)c1-c1ccc(NC(=O)[C@@H](NC(=O)c2ccnn2C)[C@@H]2CCCc3ccc(-c4ccc5c(c4)CN(C)C5)cc32)cc1 [Example 37, N-[(1S)-2-[4-(3,5-dimethyl-1H-pyrazol-4-yl)anilino]-1-[(1R)-7-(2-methylisoindolin-5-yl)tetralin-1-yl]-2-oxo-ethyl]-2-methyl-pyrazole-3-carboxamide]
Cc1n[nH]c(C)c1-c1ccc(NC(=O)[C@@H](NC(=O)c2ccnn2C)[C@@H]2CCCc3ccc(-c4ccc5c(c4)CCNC5)cc32)cc1 [Example 38, N-[(1S)-2-[4-(3,5-dimethyl-1H-pyrazol-4-yl)anilino]-2-oxo-1-[(1R)-7-(1,2,3,4-tetrahydroisoquinolin-6-yl)tetralin-1-yl]ethyl]-2-methyl-pyrazole-3-carboxamide]
Cc1n[nH]c(C)c1-c1ccc(NC(=O)[C@@H](NC(=O)C2(F)CC2)[C@@H]2CCCc3ccc(-c4ccnc(N5CCNCC5)c4)cc32)cc1 [Example 39, N-[(1S)-2-[4-(3,5-dimethyl-1H-pyrazol-4-yl)anilino]-2-oxo-1-[(1R)-7-(2-piperazin-1-yl-4-pyridyl)tetralin-1-yl]ethyl]-1-fluoro-cyclopropanecarboxamide]
Cc1ncn(C)c1-c1ccc(NC(=O)[C@@H](NC(=O)C2(F)CC2)[C@@H]2CCCc3ccc(-c4ccnc(N5C[C@@H]6C[C@H]5CN6)c4)cc32)cc1 [Example 40, N-[(1S)-1-[(1R)-7-[2-[(1S,4S)-2,5-diazabicyclo[2.2.1]heptan-2-yl]-4-pyridyl]tetralin-1-yl]-2-[4-(3,5-dimethylimidazol-4-yl)anilino]-2-oxo-ethyl]-1-fluoro-cyclopropanecarboxamide]
